Experimental data from PubChem BioAssay AID2060505 (Molecular Pharmacology Branch, DTP, NCI, 2025).
Values joined by “and” are separate entries in the source; they are usually repeats but may differ in a detail not shown here. Equal values may be shown once.

System: 633275-114-R-J1-PDC complex spheroids, viability
Test: Anticancer human tumor 633275-114-R-J1-PDC patient-derived endometrial adenocarcinoma cell line growth inhibition [GQUAD]
Details: for viability, T/C: stronger effect = lower value
Excerpt: DNA G-quadruplex Stabilizer Agents in Combinations in Complex Spheroids
A high-throughput screen of multi-cell type tumor spheroids was designed to identify active combinations of DNA G-quadruplex stabilizer agents and targeted small molecules. Complex spheroids include a stromal component modeled by human endothelial cells (HUVEC) and fibroblasts modeled by human mesenchymal stem cells (MSCs). The concentration ranges selected for each drug and investigational agent were based upon clinically achievable concentrations if the clinical Cmax of the agent was known.
Compounds. The drugs and investigational agents: pidnarulex (CX-5461; NSC782164), APTO-253 (NSC789042), BRACO-19 (NSC847499), peposertib (NSC802822), ceralasertib (NSC780249), elimusertib (NSC800525), camonsertib (NSC841442), AZD-1390 (NSC803789), olaparib (NSC753686), talazoparib (NSC767125), ART-558 (NSC835418), sotorasib (NSC818433), MRTX-1133 (NSC836407), SN-38 (NSC673596), topotecan (NSC609699), etoposide (NSC141540), doxorubicin (NSC123127), gemcitabine (NSC613327), 5-fluorouracil (NSC19893), paclitaxel (NSC125973), vemurafenib (NSC761431), panobinostat (NSC761190), R-306465 (JNJ-16241199; NSC773264), adavosertib (NSC754352), TP-3654 (NSC805149), carboplatin (NSC241240), KSQ-4279 (NSC840948), and staurosporine (NSC755774) were obtained from the National Cancer Institute (NCI) Developmental Therapeutics Program Chemical Repository (34). The FDA-approved anticancer drug set is available from the NCI Developmental Therapeutics Program. […] The stock solutions were prepared in dimethyl sulfoxide (DMSO, Sigma-Aldrich, St. Louis, MO, cat. D2650) at 800-fold the tested concentration and stored at -70 degrees C prior to their use. All drugs and investigational agents were tested over a range starting from a high concentration at or near the clinical Cmax and decreasing in half-log increments. If the clinical Cmax for an agent had not been determined, the highest concentration tested was 10 microM.
2.3 Cell Culture. All cells were maintained in an incubator at 37 degrees C and 5% CO2 with 95% humidity. The PDC lines were cultured according to standard operating procedures established by the NCI PDMR. All PDCs were thawed and cultured in Matrigel-coated flasks prepared with a working solution of 1X Ham's F-12 nutrient mix, without supplementation (Invitrogen, cat. 11765054), 100 U/mL penicillin-streptomycin (Invitrogen, cat. 15140122), and 2.5% Matrigel (Corning Inc., cat. 354248) for the first three passages. The 857933-349-R-J2-PDC line was cultured in 6C/Colon 1B media, which includes advanced DMEM/F-12 (Thermo Fisher Scientific, cat. 12634028), 10 mM HEPES (Thermo Fisher Scientific, cat. 15630080), 1X GlutaMAX supplement (Thermo Fisher Scientific, cat. 35050061), 0.1 mg/mL primocin (InvivoGen, cat. ant-pm-2), 10% defined fetal bovine serum, heat inactivated (HyClone Laboratories Inc., cat. SH30070.03HI), 50% L-WRN conditioned media (ATCC, cat. CRL-3276), 1.25 mM N-Acetyl-L-cysteine (Sigma-Aldrich, cat. A9165), 10 mM nicotinamide (Sigma-Aldrich, cat. N0636), 1X B-27 supplement (Thermo Fisher Scientific, cat. 17504044), 1X N-2 supplement (Thermo Fisher Scientific, cat. 17502048), 10 microM Y-27632 dihydrochloride (Tocris Bioscience, cat. 1254), and 50 ng/mL human EGF recombinant protein (Thermo Fisher Scientific, cat. PHG0311). The 485176-168-R4-J1-PDC line was cultured in Panc media, which includes all 6C/Colon 1B media components plus 100 ng/mL human FGF-10 (Thermo Fisher Scientific, cat. 100-26), 500 nM SB-431542 (Selleckchem, cat. S1067), and gastrin (Tocris, cat. 3006).
[…]
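Also: spheroids exposed to the agents for seven days.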
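For viability, T/C in this document: percent of DMSO vehicle control viability which is 100%.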

`C#Cc1c(F)ccc2cc(O)cc(-c3ncc4c(N5CC6CCC(C5)N6)nc(OCC56CCCN5CC(F)C6)nc4c3F)c12` (stereo unspecified) was tested, and the viability, T/C (compound 0.0316 µM) was 113% and 109% and 110%, the viability, T/C (compound 0.1 µM) was 97.5% and 81% and 88.5% and the viability, T/C (compound 0.316 µM) was 89.9% and 97.2% and 102%. For the same molecule, the viability, T/C (compound 1 µM) was 91.7% and 88.4% and 80.4%, the viability, T/C (compound 3.16 µM) was 89.1% and 69.1% and 78.6% and the viability, T/C (compound 10 µM) was 72.7% and 64.9% and 67.2%. The IC50 (curve of compound) was > 10000 nM.
For `C=CC(=O)N1CCN(c2nc(=O)n(-c3c(C)ccnc3C(C)C)c3nc(-c4c(O)cccc4F)c(F)cc23)C(C)C1` (stereo unspecified), the viability, T/C (compound 0.0316 µM) was 98.6% and 102% and 105%, the viability, T/C (compound 0.1 µM) was 101% and 93.9% and 95.3% and the viability, T/C (compound 0.316 µM) was 109% and 115% and 99.2%. For the same molecule, the viability, T/C (compound 1 µM) was 105% and 90.3% and 92%, the viability, T/C (compound 3.16 µM) was 111% and 93.5% and 105% and the viability, T/C (compound 10 µM) was 85% and 77% and 90.2%. The IC50 (curve of compound) was > 10000 nM.
In the case of `C=CCn1c(=O)c2cnc(Nc3ccc(N4CCN(C)CC4)cc3)nc2n1-c1cccc(C(C)(C)O)n1`, the viability, T/C (compound 0.0316 µM) is reported as 103% (2×) and 101%, the viability, T/C (compound 0.1 µM) is reported as 85.9% and 89.3% and 91.3% and the viability, T/C (compound 0.316 µM) is reported as 73.9% and 70.5% and 70.1%. The viability, T/C (compound 1 µM) was 35.7% and 39.9% and 32.9%, the viability, T/C (compound 3.16 µM) was 20.4% and 22.2% and 19.9% and the viability, T/C (compound 10 µM) was 14.6% and 16.2% and 13.9%. The IC50 (curve of compound) was 649 nM and 682 nM and 590 nM.
For `CC(=O)O[C@H]1C(=O)[C@@]2(C)[C@H]([C@H](OC(=O)c3ccccc3)[C@]3(O)C[C@H](OC(=O)[C@H](O)[C@@H](NC(=O)c4ccccc4)c4ccccc4)C(C)=C1C3(C)C)[C@]1(OC(C)=O)CO[C@@H]1C[C@@H]2O`, the viability, T/C (compound 0.0316 µM) was 47.5% and 49.6% and 46.9%, the viability, T/C (compound 0.1 µM) was 22.7% and 22.6% and 27.5% and the viability, T/C (compound 0.316 µM) was 18.4% and 21% and 21.7%. The viability, T/C (compound 1 µM) was 20.4% and 20% and 23.4%, the viability, T/C (compound 3.16 µM) was 18.8% and 21.8% and 21.4% and the viability, T/C (compound 10 µM) was 19.4% and 21.5% and 20.4%. The IC50 (curve of compound) was < 31.6 nM.
For `CC(C)(O)C1CCC(Nc2ccc3ncc(-c4cccc(C(F)(F)F)c4)n3n2)CC1` (stereo unspecified), the viability, T/C (compound 0.0316 µM) was 103% and 106% (2×), the viability, T/C (compound 0.1 µM) was 94.8% and 101% and 89.9% and the viability, T/C (compound 0.316 µM) was 95.2% and 87.9% and 105%. The viability, T/C (compound 1 µM) was 68.7% and 71.4% and 61.6%, the viability, T/C (compound 3.16 µM) was 29.8% and 33.2% and 29.4% and the viability, T/C (compound 10 µM) was 35% and 33.7% and 39.8%. For the same molecule, the IC50 (curve of compound) was 1810 nM and 2010 nM and 1640 nM.
For `CC(C)n1c(=O)n(C)c2cnc3cc(F)c(-c4ccc(OCCCN5CCCCC5)nc4)cc3c21`, the viability, T/C (compound 0.0316 µM) was 111% and 107% and 105%, the viability, T/C (compound 0.1 µM) was 102% and 105% and 94.4% and the viability, T/C (compound 0.316 µM) was 112% and 103% and 93.6%. For the same molecule, the viability, T/C (compound 1 µM) was 95.5% and 97.2% and 101%, the viability, T/C (compound 3.16 µM) was 96.8% and 95.2% and 92.5% and the viability, T/C (compound 10 µM) was 69.9% and 73.6% and 72.5%. The IC50 (curve of compound) was > 10000 nM.
`CC1COCCN1c1cc(-c2ccnn2C)c2ccnc(-c3ccn[nH]3)c2n1` (stereo unspecified) was tested, and the viability, T/C (compound 0.0316 µM) was 81% and 83.4% and 86.5%, the viability, T/C (compound 0.1 µM) was 59.5% and 53.2% and 55.1% and the viability, T/C (compound 0.316 µM) was 38.6% and 39.2% and 35.8%. The viability, T/C (compound 1 µM) was 26.8% and 24.3% and 27.8%, the viability, T/C (compound 3.16 µM) was 19.3% (2×) and 20.4% and the viability, T/C (compound 10 µM) was 18% and 15.8% and 15.7%. For the same molecule, the IC50 (curve of compound) was 170 nM and 137 nM and 140 nM.
With `CC1COCCN1c1cc(C2(O)CC3CCC(C2)O3)c2cnn(-c3ccn[nH]3)c2n1` (stereo unspecified) the viability, T/C (compound 0.0316 µM) was 70% and 78% and 77.7%, the viability, T/C (compound 0.1 µM) was 54.3% and 51.8% and 50.7% and the viability, T/C (compound 0.316 µM) was 29% and 32.2% and 29.2%. For the same molecule, the viability, T/C (compound 1 µM) was 19.2% and 21% and 21.1%, the viability, T/C (compound 3.16 µM) was 13.5% (2×) and 15.8% and the viability, T/C (compound 10 µM) was 8.78% and 10.1% and 9.68%. The IC50 (curve of compound) was 117 nM and 109 nM and 99.8 nM.
In the case of `CC1COCCN1c1cc(C2(S(C)(=N)=O)CC2)nc(-c2ccnc3[nH]ccc23)n1` (stereo unspecified), the viability, T/C (compound 0.0316 µM) is reported as 94.8% and 102% and 108%, the viability, T/C (compound 0.1 µM) is reported as 97.4% and 89.5% and 94.1% and the viability, T/C (compound 0.316 µM) is reported as 98.2% and 98.4% and 91.8%. The viability, T/C (compound 1 µM) was 79.9% and 72.7% and 79.3%, the viability, T/C (compound 3.16 µM) was 49.4% and 51.8% and 86.4% and the viability, T/C (compound 10 µM) was 31% and 33.7% and 32.8%. The IC50 (curve of compound) was 3020 nM and 3220 nM and 6630 nM.
`CCCS(=O)(=O)Nc1ccc(F)c(C(=O)c2c[nH]c3ncc(-c4ccc(Cl)cc4)cc23)c1F` was tested, and the viability, T/C (compound 0.0316 µM) was 101% and 96% and 115%, the viability, T/C (compound 0.1 µM) was 91.7% and 116% and 104% and the viability, T/C (compound 0.316 µM) was 101% and 107% and 113%. The viability, T/C (compound 1 µM) was 105% and 106% and 99.1%, the viability, T/C (compound 3.16 µM) was 101% and 87.6% and 96.9% and the viability, T/C (compound 10 µM) was 42.9% and 43.6% and 32.6%. For the same molecule, the IC50 (curve of compound) was 8670 nM and 8460 nM and 7300 nM.
For `CC[C@@]1(O)C(=O)OCc2c1cc1n(c2=O)Cc2cc3c(CN(C)C)c(O)ccc3nc2-1`, the viability, T/C (compound 0.000999 µM) was 95.5% and 106% and 99.4%, the viability, T/C (compound 0.00316 µM) was 97.2% and 89% and 87.9% and the viability, T/C (compound 0.00999 µM) was 86% and 86.5% and 92%. The viability, T/C (compound 0.0316 µM) was 68.2% and 70.6% and 66.2%, the viability, T/C (compound 0.0999 µM) was 41.4% and 40.2% and 45% and the viability, T/C (compound 0.316 µM) was 37.1% and 38.9% and 35.8%. The IC50 (curve of compound) was 71.7 nM and 79.8 nM and 73.9 nM.
For `CCc1c2c(nc3ccc(O)cc13)-c1cc3c(c(=O)n1C2)COC(=O)[C@]3(O)CC`, the viability, T/C (compound 0.000999 µM) was 72.9% and 83.1% and 65.5%, the viability, T/C (compound 0.00316 µM) was 47.6% and 49.1% and 47% and the viability, T/C (compound 0.00999 µM) was 36.6% and 36.4% and 38.1%. For the same molecule, the viability, T/C (compound 0.0316 µM) was 32.8% and 34.7% and 35.9%, the viability, T/C (compound 0.0999 µM) was 30% and 24.7% and 28.8% and the viability, T/C (compound 0.316 µM) was 23.7% (2×) and 24.4%. The IC50 (curve of compound) was 2.99 nM and 3.5 nM and 2.94 nM.
`CN(C)c1ccc(Nc2c3ccc(NC(=O)CCN4CCCC4)cc3nc3cc(NC(=O)CCN4CCCC4)ccc23)cc1` was tested, and the viability, T/C (compound 0.0316 µM) was 102% [middle of 12 runs], the viability, T/C (compound 0.1 µM) was 101% [middle of 12 runs] and the viability, T/C (compound 0.316 µM) was 103% [middle of 12 runs]. For the same molecule, the viability, T/C (compound 1 µM) was 94.3% [middle of 12 runs], the viability, T/C (compound 3.16 µM) was 81.8% [middle of 12 runs] and the viability, T/C (compound 10 µM) was 36.6% [middle of 12 runs]. For the same molecule, the IC50 (compound alone, run of 03/26/2024) was 7.24 µM [middle of 12 runs].
